In ChEMBL document CHEMBL5385848, “Discovery of novel hydroxyamidine based indoleamine 2,3-dioxygenase 1 (IDO1) and thioredoxin reductase 1 (TrxR1) dual inhibitors” (Eur J Med Chem, 2023) one finds Activity and IC50 data, which are given here for 1 compound.

The subject of one data set is HCT-116. Briefly: Induction of apoptosis in human HCT-116 cells assessed as caspase-3 activation incubated for 24 hrs. To be noted: dose 2.5-10 µM. The data set is classed as functional, cell-based.
For a further data set, the target named is T1, Thioredoxin reductase 3 (Homo sapiens, UniProt Q86VQ6).
T1 sequence (Q86VQ6 whole entry): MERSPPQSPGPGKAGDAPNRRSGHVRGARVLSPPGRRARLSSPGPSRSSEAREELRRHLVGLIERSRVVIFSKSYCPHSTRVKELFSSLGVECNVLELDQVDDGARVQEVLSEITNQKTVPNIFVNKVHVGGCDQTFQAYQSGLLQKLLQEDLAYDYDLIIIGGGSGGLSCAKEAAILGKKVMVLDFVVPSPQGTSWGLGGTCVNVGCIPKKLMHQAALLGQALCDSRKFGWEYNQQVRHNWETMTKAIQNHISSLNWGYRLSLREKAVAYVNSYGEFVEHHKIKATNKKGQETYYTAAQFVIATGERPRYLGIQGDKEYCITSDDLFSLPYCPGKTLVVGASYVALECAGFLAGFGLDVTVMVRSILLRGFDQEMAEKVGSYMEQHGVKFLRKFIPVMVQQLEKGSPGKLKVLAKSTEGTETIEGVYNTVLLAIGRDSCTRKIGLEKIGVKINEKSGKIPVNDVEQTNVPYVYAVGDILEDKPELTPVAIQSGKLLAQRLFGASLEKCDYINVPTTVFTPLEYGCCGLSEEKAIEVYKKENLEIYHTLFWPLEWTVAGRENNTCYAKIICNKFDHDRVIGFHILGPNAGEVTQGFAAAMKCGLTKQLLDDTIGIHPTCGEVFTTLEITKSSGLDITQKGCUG
The experiment in a line: Inhibition of TrxR3 (unknown origin) incubated for 1 hr in presence of NADPH by microplate reader analysis.

The next data set has as its system HeLa. The experiment in a line: Induction of cell cycle arrest in human HeLa cells assessed as G1/S phase arrest at 2.5 to 10 uM incubated for 24 hrs by PI staining based flow cytometry analysis. The data set is classed as functional. To be noted: dose 2.5-10 µM. In general terms: A flow cytometer gives signals particle by particle.
A short description of data set [1]: Toxicity in athymic BALB/c mouse xenografted with human HCT-116 cells assessed as effect on body weight at 15 to 60 mg/kg, ig administered daily for 28 days and measured every 4 days. The class given is organism-based. To be noted: in vivo, po, 672 h, dose 15-60 mg/kg, time 28 day.

Active and inactive are the calls of the source. No cut-off for these calls is given here.

What is called IC50 is the concentration that inhibits the measured activity by half. In the case of `O=C(Cc1ccc(O)cc1)Nc1nnc(CCCNc2nonc2/C(=N\O)Nc2ccc(F)c(Br)c2)s1`, the values for the Activity entry (in the data set on HCT-116; in data set [1]) were “Dose-Dependent Effect” and “Non-Toxic”, respectively. For the same compound, the IC50 at Thioredoxin reductase 3 was above 500 µM. Also, the result in the data set on HeLa was Active.
